# Test results from PMC11949107, “Polyunsaturated fatty acids and their endocannabinoid-related metabolites activity at human TRPV1 and TRPA1 ion channels expressed in HEK-293 cells” (PeerJ, 2025).
# Several values for one entry are separate records, joined by “and”; a condition that tells them apart may be missing. Equal entries are not always repeated.
# Columns and labels:
# human TRPV1 = target: T1, human TRPV1 (Homo sapiens, UniProt Q8NER1); test: Calcium 5 dye [Ca]i assay in HEK-293 Flp-In T-REx cells expressing TRPV1 (agonist response); assay type: cell-based; settings: for Elevation of [Ca]i in HEK-293 TRPV1 cells compared with HEK-293 EV cells / Change of Ca5 fluorescence, Mean ± SEM, TRPV1 (10 µM): 10 µM; for Change of Ca5 fluorescence, Mean ± SEM, TRPV1 (10 µM): percentage of predrug baseline; for Emax ± SEM % TRPV1 (30 µM): highest tested concentration (30 µM) or derived from concentration-response curves (DHEA, AEA, NADA, capsaicin); for Change in Ca5 fluorescence, individual experiments (CRC raw data): TRPV1 cells; for TRPV1 response, Mean± SEM (N): 30 µM, one-way ANOVA comparison with capsaicin 10 µM
# T1 construct: Life Technologies (cells); host or cells: Flp-In T-REx HEK-293
# Experimental: (§1) The cells were incubated in a 5% CO2 humidified atmosphere at 37 °C. Upon reaching approximately 90% confluence in 75 cm^2 flasks, they were trypsinized and transferred to poly-D-lysine coated 96-well plates (Corning, Castle Hill, NSW, Australia) in L-15 medium supplemented with 1% FBS, 100 U penicillin and 100 µg streptomycin ml^−1 (1% P/S), and 15 mM glucose (80 µL volume per well). After an overnight incubation (maximum of 16 h) in humidified room air at 37 °C, TRPV1 and TRPA1 receptor expression was induced 4 h before experimentation by adding to each well 10 µL tetracycline solution to a final concentration of 1 µg ml^−1.
# (§2) Intracellular calcium [Ca]i levels were assessed using the calcium 5 kit from Molecular Devices (# R8186, Sunnyvale, CA, USA) on a FlexStation 3 Microplate Reader (Molecular Devices, Sunnyvale, CA, USA). […] Probenecid (cat # 50027; Biotium) which helps to prevent expulsion of calcium indicator from the cells was added to a final concentration of 1.25 mM. 90 µL of the dye were loaded into each well of the plate and incubated for 1 h before reading in the FlexStation 3 at 37 °C. Fluorescence was recorded every 2 s (λ excitation = 485 nm, λ emission = 525 nm) for 5 min. After 1 min of baseline recording, 20 µL of the drug, dissolved in HBSS with 1% dimethyl sulfoxide (DMSO) (cat # D2650; Sigma-Aldrich, Melbourne, Australia) was added (final DMSO concentration was 0.1% in well).
# (§3) The response to agonists was expressed as a percentage change from the average baseline measurement taken for 60s before adding drug. Changes in fluorescence resulting from the addition of solvent were subtracted before normalization to baseline. Concentration–response curves (CRC), Emax and EC50 values were determined using a three-parameter logistic equation (GraphPad Prism, San Diego, CA, USA). […] Potencies were expressed as pEC50, which is the negative log of EC50 in moles per litre (Molar). Where appropriate, unpaired Student’s t-test were used to compare the responses of individual compounds in different conditions, while a one-way ANOVA followed by Dunnett’s multiple comparisons test was used to assess potential differences in responses elicited by a range of compounds. P < 0.05 was considered statistically significant.
# human TRPA1 = target: T2, human TRPA1 (Homo sapiens, UniProt O75762); test: Calcium 5 dye [Ca]i assay in HEK-293 Flp-In T-REx cells expressing TRPA1 (agonist response); assay type: cell-based; settings: for Elevation of [Ca]i in HEK-293 TRPA1 cells compared with HEK-293 EV cells: 10 µM (cinnamaldehyde 300 µM); for Change of Ca5 fluorescence, Mean ± SEM, TRPA1 (10 µM): HEK-293 TRPA1 cells, percentage of predrug baseline; for TRPA1 activation at the highest concentration tested / TRPA1 response compared with the highest concentration of cinnamaldehyde (300 µM) / TRPA1 response, Mean± SEM (N): 30 µM; for TRPA1 response, Mean± SEM (N): one-way ANOVA comparison with cinnamaldehyde 300 µM; for Emax ± SEM % TRPA1 (30 µM): highest tested concentration (30 µM) or derived from concentration-response curves (cinnamaldehyde); for Change in Ca5 fluorescence, individual experiments (CRC raw data): TRPA1 cells
# T2 construct: Life Technologies (cells); host or cells: Flp-In T-REx HEK-293
# Experimental: as §1, §2, §3
# HEK-293 EV cells = test: Calcium 5 dye [Ca]i assay in HEK-293 empty vector (EV) cells; assay type: cell-based, human; settings: 10 µM
# Experimental: as §1
# Intracellular calcium [Ca]i levels were assessed using the calcium 5 kit from Molecular Devices (# R8186, Sunnyvale, CA, USA) on a FlexStation 3 Microplate Reader (Molecular Devices, Sunnyvale, CA, USA). […] 90 µL of the dye were loaded into each well of the plate and incubated for 1 h before reading in the FlexStation 3 at 37 °C. […] After 1 min of baseline recording, 20 µL of the drug, dissolved in HBSS with 1% dimethyl sulfoxide (DMSO) (cat # D2650; Sigma-Aldrich, Melbourne, Australia) was added (final DMSO concentration was 0.1% in well).
# as §3
# [1] = HEK-293 EV cells, percentage of predrug baseline
# T1 sequence (Q8NER1 whole entry): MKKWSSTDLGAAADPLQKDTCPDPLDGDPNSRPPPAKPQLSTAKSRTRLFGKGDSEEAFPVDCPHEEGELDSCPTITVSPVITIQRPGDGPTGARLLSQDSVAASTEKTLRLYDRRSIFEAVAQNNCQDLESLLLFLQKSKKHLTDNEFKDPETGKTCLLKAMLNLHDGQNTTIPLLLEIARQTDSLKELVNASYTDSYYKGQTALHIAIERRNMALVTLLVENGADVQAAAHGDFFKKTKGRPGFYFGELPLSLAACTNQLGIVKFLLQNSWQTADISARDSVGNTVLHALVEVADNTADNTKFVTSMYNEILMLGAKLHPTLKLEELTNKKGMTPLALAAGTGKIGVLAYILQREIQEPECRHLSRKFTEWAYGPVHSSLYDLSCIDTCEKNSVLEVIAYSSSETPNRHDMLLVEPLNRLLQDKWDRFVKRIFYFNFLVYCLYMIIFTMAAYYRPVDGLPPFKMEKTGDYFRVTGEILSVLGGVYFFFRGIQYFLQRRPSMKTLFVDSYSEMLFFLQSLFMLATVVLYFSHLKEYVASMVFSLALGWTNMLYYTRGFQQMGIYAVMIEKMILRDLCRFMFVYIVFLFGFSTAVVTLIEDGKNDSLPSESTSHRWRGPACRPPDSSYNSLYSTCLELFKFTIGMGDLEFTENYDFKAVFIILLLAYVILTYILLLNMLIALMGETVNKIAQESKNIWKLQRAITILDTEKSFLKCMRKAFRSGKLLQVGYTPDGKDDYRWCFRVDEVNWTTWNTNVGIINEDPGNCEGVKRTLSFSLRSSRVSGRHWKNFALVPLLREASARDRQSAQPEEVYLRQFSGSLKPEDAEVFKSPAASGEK
# T2 sequence (O75762 whole entry): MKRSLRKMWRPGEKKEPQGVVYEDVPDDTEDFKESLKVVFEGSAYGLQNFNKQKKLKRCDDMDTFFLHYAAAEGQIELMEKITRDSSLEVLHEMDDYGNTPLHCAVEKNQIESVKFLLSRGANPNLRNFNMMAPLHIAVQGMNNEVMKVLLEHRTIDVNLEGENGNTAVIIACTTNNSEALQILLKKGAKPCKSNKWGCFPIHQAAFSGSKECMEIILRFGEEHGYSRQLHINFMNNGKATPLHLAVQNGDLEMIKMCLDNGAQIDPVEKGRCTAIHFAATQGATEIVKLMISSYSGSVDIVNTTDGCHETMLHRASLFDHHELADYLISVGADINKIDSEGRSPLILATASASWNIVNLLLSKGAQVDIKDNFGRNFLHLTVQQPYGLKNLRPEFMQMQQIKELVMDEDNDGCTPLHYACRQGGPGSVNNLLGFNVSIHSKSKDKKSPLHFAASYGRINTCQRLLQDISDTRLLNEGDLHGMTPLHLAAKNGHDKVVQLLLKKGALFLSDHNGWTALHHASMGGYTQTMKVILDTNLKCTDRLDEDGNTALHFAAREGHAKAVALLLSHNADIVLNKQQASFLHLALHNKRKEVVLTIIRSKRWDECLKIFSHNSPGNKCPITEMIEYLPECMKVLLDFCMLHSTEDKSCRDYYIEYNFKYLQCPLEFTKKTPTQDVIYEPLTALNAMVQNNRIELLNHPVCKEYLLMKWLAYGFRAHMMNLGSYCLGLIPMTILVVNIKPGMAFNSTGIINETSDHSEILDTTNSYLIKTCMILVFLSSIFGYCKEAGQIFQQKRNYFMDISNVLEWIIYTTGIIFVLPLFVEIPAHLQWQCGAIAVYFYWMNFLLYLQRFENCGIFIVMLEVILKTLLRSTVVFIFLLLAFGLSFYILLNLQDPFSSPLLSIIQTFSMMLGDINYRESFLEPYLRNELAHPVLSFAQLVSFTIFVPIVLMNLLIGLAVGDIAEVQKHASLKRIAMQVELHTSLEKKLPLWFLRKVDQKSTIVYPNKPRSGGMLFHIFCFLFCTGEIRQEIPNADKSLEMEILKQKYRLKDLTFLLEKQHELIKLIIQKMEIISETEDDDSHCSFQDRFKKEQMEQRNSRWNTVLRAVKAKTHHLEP
Structure (SMILES),Elevation of [Ca]i in HEK-293 TRPV1 cells compared with HEK-293 EV cells (human TRPV1),"Change of Ca5 fluorescence, Mean ± SEM, TRPV1 (10 µM) (human TRPV1; HEK-293 TRPV1 cells)",Emax ± SEM % TRPV1 (30 µM) (human TRPV1),"Change in Ca5 fluorescence, individual experiments (CRC raw data) (human TRPV1; log concentration -4.52288 (M))","Change in Ca5 fluorescence, individual experiments (CRC raw data) (human TRPV1; log concentration -5 (M))","Change in Ca5 fluorescence, individual experiments (CRC raw data) (human TRPV1; log concentration -5.52288 (M))","Change in Ca5 fluorescence, individual experiments (CRC raw data) (human TRPV1; log concentration -6 (M))","Change in Ca5 fluorescence, individual experiments (CRC raw data) (human TRPV1; log concentration -6.52288 (M))","Change in Ca5 fluorescence, individual experiments (CRC raw data) (human TRPV1; log concentration -7 (M))",Elevation of [Ca]i in HEK-293 TRPA1 cells compared with HEK-293 EV cells (human TRPA1),"Change of Ca5 fluorescence, Mean ± SEM, TRPA1 (10 µM) (human TRPA1)",TRPA1 activation at the highest concentration tested (human TRPA1),TRPA1 response compared with the highest concentration of cinnamaldehyde (300 µM) (human TRPA1),"TRPA1 response, Mean± SEM (N) (human TRPA1)","Change in Ca5 fluorescence, individual experiments (CRC raw data) (human TRPA1; log concentration -4.52288 (M))","Change in Ca5 fluorescence, individual experiments (CRC raw data) (human TRPA1; log concentration -5 (M))","Change in Ca5 fluorescence, individual experiments (CRC raw data) (human TRPA1; log concentration -5.52288 (M))","Change in Ca5 fluorescence, individual experiments (CRC raw data) (human TRPA1; log concentration -6 (M))","Change in Ca5 fluorescence, individual experiments (CRC raw data) (human TRPA1; log concentration -6.52288 (M))","Change in Ca5 fluorescence, individual experiments (CRC raw data) (human TRPA1; log concentration -7 (M))",further results
"CC/C=C\C/C=C\C/C=C\C/C=C\C/C=C\C/C=C\CCC(=O)NCCO [DHEA, docosahexaenoyl ethanolamide]",significantly greater,266 ± 51 %,439 ± 81%,421.157 and 266.746 and 225.074 and 238.504 and 226.816 and 459.662,358.299 and 237.035 and 372.804 and 59.1046 and 202.763 and 364.608,143.051 and 24.824 and 40.8645 and 14.285 and 22.6333 and 69.1812,82.6736 and 2.152 and 3.016 and 2.309 and 4.337 and 4.334,7.224 and 2.186 and 3.68 and 2.567 and 2.837 and 6.478,5.718 and 2.642 and 2.583 and 2.209 and 5.355 and 1.543,significantly greater,107 ± 50 %,activated TRPA1,did not differ,335± 60,349.992 and 313.567 and 315.432 and 199.601 and 366.143 and 464.813,252.775 and 33.0558 and 3.468 and 15.2698 and 63.0111 and 272.344,2.533 and 3.173 and 1.452 and 10.0203 and 10.0547 and 73.8394,2.6845 and 3.9598 and 1.663 and 5.882 and 4.143 and 4.307,2.976 and 11.5941 and 1.922 and 8.318 and 8.221 and 6.083,8.586 and 11.8101 and 8.8764 and 6.208 and 4.123 and 2.766,"Maximal TRPV1 response compared with the highest concentration of capsaicin (human TRPV1; 30 µM vs capsaicin 10 µM): did not differ; pEC50 ± SEM TRPV1 (human TRPV1; HEK-293 TRPV1 cells, EC50 in molar): 5 ± 0.2; Emax ± SEM % TRPA1 (30 µM) (human TRPA1): 335 ± 35%; Change of Ca5 fluorescence, Mean ± SEM, EV (10 µM) (HEK-293 EV cells; [1]): 10 ± 3%"
"CC/C=C\C/C=C\C/C=C\C/C=C\C/C=C\CCCC(=O)NCCO [EPEA, eicosapentaenoyl ethanolamide]",did not produce a notable change,15 ± 8%,51 ± 22%,12.8698 and 124.435 and 117.092 and 13.2242 and 28.647 and 8.814,6.443 and 53.2228 and 9.9712 and 11.9185 and 2.5776 and 3.793,5.664 and 10.8694 and 3.209 and 12.2234 and 1.072 and 3.982,2.913 and 5.488 and 1.312 and 9.151 and 2.704 and 1.489,3.773 and 2.311 and 2.08 and 9.31 and 0.4729 and 1.052,7.0578 and 1.12 and 6.0854 and 9.074 and 2.61 and 2.864,did not produce a change,50 ± 40%,activated TRPA1,significantly smaller,274± 60,345.33 and 330.592 and 234.198 and 185.482 and 229.324 and 316.639,250.67 and 8.984 and 4.299 and 4.23 and 22.2267 and 8.362,6.789 and 4.391 and 2.799 and 3.328 and 5.534 and 8.248,2.3186 and 6.477 and 1.9747 and 2.489 and 1.415 and 7.402,2.468 and 7.816 and 1.613 and 1.7019 and 8.366 and 8.252,1.245 and 5.751 and 2.391 and 4.163 and 4.153 and 8.202,"TRPV1 response, Mean± SEM (N) (human TRPV1): 51± 56; Emax ± SEM % TRPA1 (30 µM) (human TRPA1): 274 ± 27%; Change of Ca5 fluorescence, Mean ± SEM, EV (10 µM) (HEK-293 EV cells; [1]): 3 ± 1%"
"CCCCC/C=C\C/C=C\CCCCCCCC(=O)OC(CO)CO [2-LG, 2-linoleoyl glycerol]",significantly greater,41 ± 13 %,,94.4158 and 105.55 and 25.614 and 76.6153 and 45.9507 and 101.137,77.397 and 64.9743 and 11.4263 and 68.0539 and 10.4174 and 14.0616,11.4427 and 8.3913 and 3.912 and 22.8641 and 8.0659 and 6.3713,1.494 and 8.29 and 4.971 and 3.518 and 4.176 and 6.083,-0.2355 and 4.786 and 26.5089 and 15.6203 and 3.581 and 2.28,0.8392 and 7.338 and 6.807 and 12.2096 and 4.264 and 3.998,,6 ± 2%,no effect,significantly smaller,10± 60,12.5375 and 5.756 and 5.697 and 4.08 and 3.702 and 27.8122,11.4202 and 3.2095 and 1.996 and 7.055 and 3.7574 and 11.3273,11.369 and 3.556 and 1.657 and 5.485,12.4294 and 3.284 and 5.41 and 5.662 and 4.232 and 5.177,12.1064 and 3.832 and 1.455 and 7.527,15.3703 and 7.007 and 2.201 and 137.719,"TRPV1 response, Mean± SEM (N) (human TRPV1): 75± 56; Emax at 30 µM (human TRPV1; HEK293, read-out: Emax ± SEM % TRPV1 (30 µM)): 75 ± 13%; Emax at 30 µM (human TRPA1; HEK293, read-out: Emax ± SEM % TRPA1 (30 µM)): 10 ± 4%; Change of Ca5 fluorescence, Mean ± SEM, EV (10 µM) (HEK-293 EV cells): 4 ± 1%"
